In brackets after ≈: the same amount, converted by molar mass.
Assays:
PC-3 = assay: Cytotoxicity against human PC3 cells after 72 hrs by MTT assay; type: cell-based; conditions: PC-3, 72 h
MDA-MB-435 = assay: Cytotoxicity against human MDA-MB-435 cells after 72 hrs by MTT assay; type: functional, cell-based; conditions: MDA-MB-435, 72 h
SF-295 = assay: Cytotoxicity against human SF295 cells after 72 hrs by MTT assay; type: functional, cell-based; conditions: SF-295, 72 h
HL-60 = assay: Cytotoxicity against human HL60 cells after 72 hrs by MTT assay; type: functional, cell-based; conditions: HL-60, 72 h
HCT-8 = assay: Cytotoxicity against human HCT8 cells after 72 hrs by MTT assay; type: functional, cell-based; conditions: HCT-8, 72 h
B16 = assay: Cytotoxicity against mouse B16 cells after 72 hrs by MTT assay; type: functional, cell-based; conditions: B16, 72 h
L929 = assay: Cytotoxicity against mouse L929 cells after 72 hrs by MTT assay; type: cell-based; conditions: L929, 72 h
[1] = Toxicity assessed as hemolytic activity against mouse erythrocyte; type: cell-based; conditions: mouse erythrocytes

Compound | IC50 (PC-3) | IC50 (MDA-MB-435) | IC50 (SF-295) | IC50 (HL-60) | IC50 (HCT-8) | IC50 (B16) | IC50 (L929) | EC50 [1]
Cc1ccc(C)c(NC2C3=C(OC2(C)C)c2ccccc2C(=O)C3=O)c1 (stereo not given) | 0.32 µg/mL (≈ 0.921 µM) | 0.27 µg/mL (≈ 0.777 µM) | 2.08 µg/mL (≈ 5.99 µM) | 1.27 µg/mL (≈ 3.66 µM) | 1.59 µg/mL (≈ 4.58 µM) | 3.03 µg/mL (≈ 8.72 µM) | > 5 µg/mL | > 200 µg/mL
CC1(C)OC2=C(C(=O)C(=O)c3ccccc32)C1Nc1ccc(F)cc1 (stereo not given) | 0.31 µg/mL (≈ 0.919 µM) | 0.12 µg/mL (≈ 0.356 µM) | 0.59 µg/mL (≈ 1.75 µM) | 0.32 µg/mL (≈ 0.949 µM) | 0.51 µg/mL (≈ 1.51 µM) | 0.42 µg/mL (≈ 1.24 µM) | 0.52 µg/mL (≈ 1.54 µM) | > 200 µg/mL
CC1(C)OC2=C(C(=O)C(=O)c3ccccc32)C1Nc1cccc(Cl)c1 (stereo not given) | 0.49 µg/mL (≈ 1.38 µM) | 0.17 µg/mL (≈ 0.48 µM) | 0.36 µg/mL (≈ 1.02 µM) | 0.39 µg/mL (≈ 1.1 µM) | 0.51 µg/mL (≈ 1.44 µM) | 0.56 µg/mL (≈ 1.58 µM) | 1.16 µg/mL (≈ 3.28 µM) | > 200 µg/mL
CC1(C)OC2=C(C(=O)C(=O)c3ccccc32)C1Nc1cccc(Br)c1 (stereo not given) | 0.46 µg/mL (≈ 1.16 µM) | 0.2 µg/mL (≈ 0.502 µM) | 0.93 µg/mL (≈ 2.34 µM) | 0.5 µg/mL (≈ 1.26 µM) | 0.7 µg/mL (≈ 1.76 µM) | 0.48 µg/mL (≈ 1.21 µM) | 1.02 µg/mL (≈ 2.56 µM) | > 200 µg/mL
CC1(C)OC2=C(C(=O)C(=O)c3ccccc32)C1Nc1cccc([N+](=O)[O-])c1 (stereo not given) | 0.41 µg/mL (≈ 1.13 µM) | 0.23 µg/mL (≈ 0.631 µM) | 0.5 µg/mL (≈ 1.37 µM) | 0.33 µg/mL (≈ 0.906 µM) | 0.64 µg/mL (≈ 1.76 µM) | 0.43 µg/mL (≈ 1.18 µM) | 0.42 µg/mL (≈ 1.15 µM) | > 200 µg/mL
CC1(C)OC2=C(C(=O)C(=O)c3ccccc32)C1Nc1ccccc1 (stereo not given) | 0.31 µg/mL (≈ 0.971 µM) | 0.3 µg/mL (≈ 0.939 µM) | 0.89 µg/mL (≈ 2.79 µM) | 0.66 µg/mL (≈ 2.07 µM) | 0.99 µg/mL (≈ 3.1 µM) | 0.74 µg/mL (≈ 2.32 µM) | 2.72 µg/mL (≈ 8.52 µM) | > 200 µg/mL
CC1(C)OC2=C(C(=O)c3ccccc3C2=O)C1Nc1ccccc1 (stereo not given) | 1.34 µg/mL (≈ 4.2 µM) | 0.89 µg/mL (≈ 2.79 µM) | 2.52 µg/mL (≈ 7.89 µM) | 2.99 µg/mL (≈ 9.36 µM) | 1.43 µg/mL (≈ 4.48 µM) | 1 µg/mL (≈ 3.13 µM) | 3.08 µg/mL (≈ 9.64 µM) | > 200 µg/mL
COc1cccc2c1C(=O)c1c(O)c3c(c(O)c1C2=O)C[C@@](O)(C(=O)CO)C[C@@H]3O[C@H]1C[C@H](N)[C@H](O)[C@H](C)O1 [DOXORUBICIN] | 0.24 µg/mL (≈ 0.442 µM) |  | 0.25 µg/mL (≈ 0.46 µM) |  | 0.04 µg/mL (≈ 0.0736 µM) | 0.03 µg/mL (≈ 0.0552 µM) |  | 
CC1(C)CCC2=C(O1)c1ccccc1C(=O)C2=O [LAPACHONE] |  | 0.06 µg/mL (≈ 0.248 µM) | 0.22 µg/mL (≈ 0.908 µM) | 0.4 µg/mL (≈ 1.65 µM) | 0.2 µg/mL (≈ 0.826 µM) |  |  | > 200 µg/mL
CC1(C)CC2=C(O1)c1ccccc1C(=O)C2=O [NOR-BETA-LAPACHONE] |  | 0.07 µg/mL (≈ 0.307 µM) | 0.36 µg/mL (≈ 1.58 µM) | 0.4 µg/mL (≈ 1.75 µM) | 0.31 µg/mL (≈ 1.36 µM) |  |  | > 200 µg/mL

Source: ChEMBL document CHEMBL1137493, “Synthesis and potent antitumor activity of new arylamino derivatives of nor-beta-lapachone and nor-alpha-lapachone” (Bioorg Med Chem, 2007)
